According to publication PMC9917735, “Optimization of the Hemolysis Assay for the Assessment of Cytotoxicity” (International Journal of Molecular Sciences, 2023):
In brackets after ≈: the same amount, converted by molar mass. Like-named read-outs stand apart in the source and are kept apart here.

Experiments:
human whole blood = conditions: for Calculated hemolysis ratio: human whole blood, peptides 100 μM, 60 min 37 °C, neg. PBS, 3 x 2 replicates
rabbit whole blood = conditions: for Hemolysis ratio: rabbit whole blood, AMPs 100 μM, 1 hour 37 °C, 3 x 2 replicates
Description: (§1) Cytotoxicity studies are important during characterization of novel compounds or materials intended for interactions within human biological systems in vivo. Evaluation of the extent to which the compound induces disruption of the membrane of erythrocytes (red blood cells), thereby causing release of cellular content, often constitutes an initial step in such cytotoxicity assessments. The assay used in this context is generally referred to as the hemolysis assay, which has the advantages of being cheap, accessible, and simple to perform. Blood is drawn from a human or an animal, and next, the washed erythrocytes are incubated together with the compound or material under investigation. If the compound causes hemolysis, hemoglobin (along with other cellular constituents) will be released into the supernatant.
(§2) Blood from mice, rats, and rabbits was provided by the Department of Comparative Medicine at Oslo University Hospital (Marianne Aannestad). For mice and rats, the blood was collected from the heart by using 25 G and 21 G needles, respectively, whereas for rabbits, the blood was collected by free bleed through the ear using a yellow neoflon (24 G). All animals were wild type and anesthetized prior to the procedure.
(§3) All blood was collected in Lithium Heparin tubes 4 mL (Greiner Bio-One, Kremsmünster, Austria) or Coagulation sodium citrate 3.2% tubes 3 mL (Greiner Bio-One).
(§4) AMP 2 contained an N-terminal hexanoic acid moiety, whereas all peptides contained amidated C-termini. These three peptides were synthesized by Genscript Inc. (Piscataway, NJ, USA), and stock solutions of 1 mg/mL were made from the purchased powders. […] All peptides were diluted to yield a 100 μM final concentration in the hemolysis assays.
(§5) Triton X-100 (T8787) and Tween-20 (P2287) detergents were purchased from Sigma Aldrich and diluted to obtain 10% stock solutions by weighing (w/v). A sodium Dodecyl Sulfate (SDS) 10% solution was purchased from Invitrogen (Waltham, MA, USA, 15553027). All subsequent dilutions annotated in figures were made from these stocks.
(§6) As soon as possible after phlebotomy, the blood samples were centrifuged at 1700× g for 5 min. The supernatant was removed by aspiration and 2 mL of PBS pH 7 was added. The washing step was repeated three times or until the supernatant was clear. After final aspiration, the remaining pellet was diluted 1:100 in PBS pH 7 to obtain a 1% erythrocyte suspension (or 1:100, 1:50, and 1:20 for assays testing the effect of erythrocyte concentration). For experiments using whole blood, the washing steps were not performed, but downstream experimentation was identical. For experiments performed with 96-well plates, 50 μL of test compound, water, or detergent were mixed with 50 μL of blood sample (1% erythrocyte suspension or whole blood). For experiments using larger volumes, 250 μL of test compound, water, or detergent were mixed with 250 μL blood sample in an Eppendorf tube. Samples were subsequently incubated at 37 °C for 60 min (or 15, 30, 60, 90, or 120 min for assays evaluating the effect of incubation time). After incubation, the plates/tubes were centrifuged at 1700× g for 5 min, and then 50 μL of the supernatants were transferred to transparent, flat-bottom 96-well plates (Anicrin, A013418). Finally, absorption was measured at 405, 530, and 570 nm in a Victor Nivo Multimode microplate reader (Perkin Elmer, Waltham, MA, USA).

mouse erythrocytes = conditions: AMPs 100 μM, 1 hour 37 °C, pos. 10% Triton X-100, neg. PBS, 3 x 2 replicates
Description: as §1, §2, §3, §4, §5, §6

rat erythrocytes = conditions: AMPs 100 μM, 1 hour 37 °C, pos. 10% Triton X-100, neg. PBS, 3 x 2 replicates
Description: as §1, §2, §3, §4, §5, §6

rabbit erythrocytes = conditions: AMPs 100 μM, 1 hour 37 °C, pos. 10% Triton X-100, neg. PBS, 3 x 2 replicates
Description: as §1, §2, §3, §4, §5, §6

[1] = system: washed human erythrocytes; assay: Hemolysis assay, washed human erythrocytes
[2] = system: washed human erythrocytes; assay: Flow cytometry of treated erythrocytes with live/dead amine-reactive stain; format: cell-based; conditions: washed human erythrocytes treated 60 minutes, AMPs 100 μM, amine-reactive dye 488, flow cytometry 533/30 nm
Experimental: Briefly, a 1% washed erythrocyte solution was diluted to ~10^5 cells/mL and 0.4% Trypan blue (1:1 ratio) was added before 10 μL of the stained cell suspension was added to the Countess cell counting chamber slide. After a 30 s incubation, the slide was inserted into the instrument for automatic cell counting.
The Countess II automated cell counter (see above) was used to adjust the negative control sample to ~10^5 cells/mL and to subsequently dilute all samples by the same factor. Then, 0.5 μL of live/dead amine-reactive dye 488 (Fisher Scientific, Waltham, MA, USA) was added to 0.5 mL cell suspension and incubated for 30 min protected from light. Subsequently, the samples were washed twice with PBS pH 7 containing 1% bovine serum albumin (BSA), and finally resuspended in PBS pH 7 with 1% BSA. Cells were next counted, and the fluorescence measured using the 533/30 nm filter in an Accuri C6 flow cytometer (BD Biosciences, Franklin Lakes, NJ, USA).

E. coli = conditions: E. coli

CC[C@H](C)[C@H](NC(=O)[C@H](CC(C)C)NC(=O)[C@H](CCC(N)=O)NC(=O)[C@H](CC(C)C)NC(=O)[C@@H](NC(=O)[C@H](C)NC(=O)[C@H](CCCCN)NC(=O)[C@H](CCCCN)NC(=O)[C@H](CCCCN)NC(=O)[C@H](CCCCN)NC(=O)[C@H](CCCCN)NC(=O)[C@@H](NC(=O)[C@H](CCCNC(=N)N)NC(=O)[C@H](CCCCN)NC(=O)[C@@H](NC(=O)[C@H](CC(C)C)NC(=O)[C@H](Cc1ccc(O)cc1)NC(=O)[C@H](CCCNC(=N)N)NC(=O)CNC(=O)[C@H](CC(=O)O)NC(=O)[C@@H](NC(=O)[C@@H](N)CCSC)[C@@H](C)O)[C@@H](C)CC)C(C)C)C(C)C)C(=O)N[C@@H](CC(C)C)C(=O)N[C@@H](CCCCN)C(=O)N[C@@H](Cc1ccccc1)C(=O)N[C@@H](CC(C)C)C(N)=O [AMP 3] was tested, and the Calculated hemolysis ratio (human whole blood; OD 405 nm (signal saturated), pos. 10% SDS) was 15.5 ± 7.1%, the Calculated hemolysis ratio (human whole blood; OD 530 nm, pos. 10% SDS) was 2.7% and the Calculated hemolysis ratio (human whole blood; OD 570 nm, pos. 10% Triton X-100 (table title; text says 10% SDS)) was 3.8%. For the same compound, the “Fold reduction in HR in human whole blood in comparison with washed erythrocytes measured at 405 nm” value (human whole blood; whole blood HR with 10% SDS as positive control (Table 5) vs washed erythrocytes (Table 6), 100 μM) was over 27 fold, the “Fold decrease of hemolytic effect in rabbit whole blood vs washed rabbit erythrocytes” value (rabbit whole blood; cf. Tables S3 and S4, 100 μM) was 4 fold and the Hemolysis ratio (rabbit whole blood; OD 530 nm, pos. 10% SDS, neg. PBS) was 13.2 +/- 3%. For the same compound, the Hemolysis ratio (rabbit whole blood; OD 570 nm, pos. 10% Triton X-100, neg. PBS) was 13.1 +/- 3.2%, the Hemolysis ratio (mouse erythrocytes; Table S4: washed mouse erythrocytes, OD 405 nm) was 77.1 +/- 3.8% and the Hemolysis ratio (mouse erythrocytes; washed mouse erythrocytes, OD 530 nm) was 71.1 +/- 3.2%. The Hemolysis ratio (mouse erythrocytes; washed mouse erythrocytes, OD 570 nm) was 47.7 +/- 2.5%, the Hemolysis ratio (rat erythrocytes; Table S4: washed rat erythrocytes, OD 405 nm) was 29.5 +/- 8.2% and the Hemolysis ratio (rat erythrocytes; washed rat erythrocytes, OD 530 nm) was 30.7 +/- 13.1%. The Hemolysis ratio (rat erythrocytes; washed rat erythrocytes, OD 570 nm) was 31.1 +/- 12.7%, the Hemolysis ratio (rabbit erythrocytes; Table S4: washed rabbit erythrocytes, OD 405 nm) was 53.2 +/- 7.4% and the Hemolysis ratio (rabbit erythrocytes; washed rabbit erythrocytes, OD 530 nm) was 50.1 +/- 7.7%. For the same compound, the Hemolysis ratio (rabbit erythrocytes; washed rabbit erythrocytes, OD 570 nm) was 52.7 +/- 8.2%, the Calculated hemolysis ratio ([1]; 1% washed human erythrocytes, OD 530 nm, peptides 100 μM, 60 min 37 °C, pos. 10% Triton X-100, neg. PBS, 3 x 2 replicates) was 68.4 ± 15% and the Calculated hemolysis ratio ([1]; 1% washed human erythrocytes, OD 570 nm, peptides 100 μM, 60 min 37 °C, pos. 10% Triton X-100, neg. PBS, 3 x 2 replicates) was 65.7 ± 11.6%. The “Calculated Hemolysis (%)” value ([1]; 2% pooled human erythrocytes, AMPs 100 µM, 60 min 37 °C, 405 nm, pos. 10% Triton X-100, neg. PBS, 3 x 2 replicates) was 41.1 ± 3.2%, the “Calculated Hemolysis (%)” value ([1]; 5% pooled human erythrocytes, AMPs 100 µM, 60 min 37 °C, 405 nm, pos. 10% Triton X-100, neg. PBS, 3 x 2 replicates) was 45.7 ± 8.2% and the Calculated hemolysis ratio ([1]; Table 1: 1% human erythrocytes, 100 µM, 60 min 37 °C, OD 405 nm, pos. 10% Triton X-100, neg. PBS, mean ± SD, 3 experimental x 2 technical replicates) was 37 ± 5.1%. For the same compound, the Calculated hemolysis ratio ([1]; Table 2: pooled blood from all 10 individuals, 1% erythrocytes, AMPs 100 µM, 60 min 37 °C, 405 nm, pos. 10% Triton X, neg. PBS, 3 x 2 replicates) was 45.4 ± 4.8%, the “Calculated Hemolysis (%)” value ([1]; Table 3: 1% pooled human erythrocytes, AMPs 100 µM, 60 min 37 °C, 405 nm, pos. 10% Triton X-100, neg. PBS, 3 x 2 replicates) was 45.4 ± 4.8% and the Calculated hemolysis ratio ([1]; Table 4: incubation 60 min, 37 °C, 1% human erythrocytes, AMPs 100 µM, 405 nm, pos. 10% Triton X-100, neg. PBS, 3 biological x 2 technical replicates) was 64.6 ± 6.8%. For the same compound, the Calculated hemolysis ratio ([1]; Table 6: 1% washed human erythrocytes, OD 405 nm, peptides 100 μM, 60 min 37 °C, pos. 10% Triton X-100, neg. PBS, 3 x 2 replicates) was 73.5 ± 14.4%, the Calculated hemolysis ratio ([1]; human individual # 1, 1% erythrocytes, AMPs 100 µM, 60 min 37 °C, 405 nm, pos. 10% Triton X, neg. PBS, 3 x 2 replicates) was 36.4 ± 5% and the Calculated hemolysis ratio ([1]; human individual # 2, 1% erythrocytes, AMPs 100 µM, 60 min 37 °C, 405 nm, pos. 10% Triton X, neg. PBS, 3 x 2 replicates) was 39.3 ± 6%. For the same compound, the Calculated hemolysis ratio ([1]; human individual # 3, 1% erythrocytes, AMPs 100 µM, 60 min 37 °C, 405 nm, pos. 10% Triton X, neg. PBS, 3 x 2 replicates) was 49.4 ± 8.5%, the Calculated hemolysis ratio ([1]; human individual # 4, 1% erythrocytes, AMPs 100 µM, 60 min 37 °C, 405 nm, pos. 10% Triton X, neg. PBS, 3 x 2 replicates) was 43.6 ± 4.2% and the Calculated hemolysis ratio ([1]; human individual # 5, 1% erythrocytes, AMPs 100 µM, 60 min 37 °C, 405 nm, pos. 10% Triton X, neg. PBS, 3 x 2 replicates) was 38.3 ± 7.3%. The Calculated hemolysis ratio ([1]; human individual # 6, 1% erythrocytes, AMPs 100 µM, 60 min 37 °C, 405 nm, pos. 10% Triton X, neg. PBS, 3 x 2 replicates) was 45.7 ± 6.4%, the Calculated hemolysis ratio ([1]; human individual # 7, 1% erythrocytes, AMPs 100 µM, 60 min 37 °C, 405 nm, pos. 10% Triton X, neg. PBS, 3 x 2 replicates) was 37.7 ± 6.9% and the Calculated hemolysis ratio ([1]; human individual # 8, 1% erythrocytes, AMPs 100 µM, 60 min 37 °C, 405 nm, pos. 10% Triton X, neg. PBS, 3 x 2 replicates) was 45.6 ± 9.2%. The Calculated hemolysis ratio ([1]; human individual # 9, 1% erythrocytes, AMPs 100 µM, 60 min 37 °C, 405 nm, pos. 10% Triton X, neg. PBS, 3 x 2 replicates) was 42.1 ± 4.7%, the Calculated hemolysis ratio ([1]; human individual # 10, 1% erythrocytes, AMPs 100 µM, 60 min 37 °C, 405 nm, pos. 10% Triton X, neg. PBS, 3 x 2 replicates) was 50.3 ± 4.6% and the Calculated hemolysis ratio ([1]; incubated in polypropylene tubes, 1% washed human erythrocytes, peptides 100 μM, 60 min 37 °C, 405 nm, pos. 10% Triton X-100, neg. PBS, 3 x 2 replicates) was 57.5 ± 13.2%. It also gave a Calculated hemolysis ratio ([1]; incubated in polystyrene tubes, 1% washed human erythrocytes, peptides 100 μM, 60 min 37 °C, 405 nm, pos. 10% Triton X-100, neg. PBS, 3 x 2 replicates) of 66.7 ± 12.7%, a Calculated hemolysis ratio ([1]; incubation 15 min, 37 °C, 1% human erythrocytes, AMPs 100 µM, 405 nm, pos. 10% Triton X-100, neg. PBS, 3 biological x 2 technical replicates) of 54.8 ± 8.2% and a Calculated hemolysis ratio ([1]; incubation 30 min, 37 °C, 1% human erythrocytes, AMPs 100 µM, 405 nm, pos. 10% Triton X-100, neg. PBS, 3 biological x 2 technical replicates) of 56.6 ± 7.4%. The Calculated hemolysis ratio ([1]; incubation 90 min, 37 °C, 1% human erythrocytes, AMPs 100 µM, 405 nm, pos. 10% Triton X-100, neg. PBS, 3 biological x 2 technical replicates) was 63 ± 4.5%, the Calculated hemolysis ratio ([1]; incubation 120 min, 37 °C, 1% human erythrocytes, AMPs 100 µM, 405 nm, pos. 10% Triton X-100, neg. PBS, 3 biological x 2 technical replicates) was 74.3 ± 21.1% and the “Observed hemolytic properties (qualitative)” value ([1]; reason for choice of the AMPs) was “high”. For the same compound, the Calculated hemolysis ratio ([1]; total incubation volume 100 μL, 1% washed human erythrocytes, peptides 100 μM, 60 min 37 °C, 405 nm, pos. 10% Triton X-100, neg. PBS, 3 x 2 replicates) was 66.7 ± 12.7%, the Calculated hemolysis ratio ([1]; total incubation volume 500 μL, 1% washed human erythrocytes, peptides 100 μM, 60 min 37 °C, 405 nm, pos. 10% Triton X-100, neg. PBS, 3 x 2 replicates) was 72.7 ± 10.4% and the “Fluorescence intensity per cell of remaining intact cells (live/dead stain)” value [2] was “surprisingly high fluorescence intensity measurements per cell”. For the same compound, the “Minimum inhibitory concentration (E. coli)” value (E. coli) was 4 µM (≈ 12.5 µg/mL).
